From BindingDB's records for patent US10919885 (Yumanity Therapeutics, 2021)

Assays:
[1] = target: T1, Stearoyl-CoA desaturase 5 (Homo sapiens, UniProt Q86SK9); experiment: Compound Profiling Methods
T1 sequence (Q86SK9 whole entry): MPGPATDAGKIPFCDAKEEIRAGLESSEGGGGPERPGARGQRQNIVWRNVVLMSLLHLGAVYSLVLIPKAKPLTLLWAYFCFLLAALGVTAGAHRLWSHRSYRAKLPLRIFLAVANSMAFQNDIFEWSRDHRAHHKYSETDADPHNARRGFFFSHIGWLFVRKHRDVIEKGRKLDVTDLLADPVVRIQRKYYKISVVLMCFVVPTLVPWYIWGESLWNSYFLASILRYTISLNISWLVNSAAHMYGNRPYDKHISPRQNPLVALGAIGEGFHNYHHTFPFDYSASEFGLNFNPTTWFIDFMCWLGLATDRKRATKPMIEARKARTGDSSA
Experimental: (§1) Strains expressing SCD1 or SCD5 as the sole desaturase, the human SCD1 and SCD5 genes were used to evaluate inhibition of SCD1/SCD5 using reduced growth as a surrogate for SCD inhibition. These yeast strains express human SCD1 or SCD5 from a plasmid harbored in a strain in which the yeast OLE1 gene is deleted.All compound profiling experiments were performed using the same basic protocol. Yeast were cultured using standard techniques in complete synthetic media lacking uracil and containing yeast nitrogen base supplemented with 2% (w/v) glucose (SD-Ura) Starter cultures were inoculated in 3 mL SD-Ura media containing 0.01% tween and 0.2 mM palmitoleic and oleic acid. Cultures were incubated overnight in a 30° C. shaker incubator (225 rpm). Saturated morning cultures were centrifuged, washed in SD-Ura media lacking TWEEN-20 and fatty acids, and then diluted 1:20 in fresh SD-Ura media also lacking TWEEN-20 and fatty acids. […] Compound administration was performed in two separate steps. First, 15 μL of SD-Ura was dispensed into clear 384-well assay plates using a MULTIDROP Combi reagent dispenser. […] The cultures described above were centrifuged and washed with media lacking TWEEN-20 or oleic and palmitoleic acids. Cultures were then resuspended at a 2-fold concentrated OD600 of 0.02 (final OD600 of 0.0.01) in SD-Ura. […] Yeast growth was monitored by reading the OD600 of each well using a microplate reader (Perkin Elmer EnVision ). Data were analyzed as follows.

[2] = target: T2, Stearoyl-CoA desaturase (Homo sapiens, UniProt O00767); experiment: Compound Profiling Methods
T2 sequence (O00767 whole entry): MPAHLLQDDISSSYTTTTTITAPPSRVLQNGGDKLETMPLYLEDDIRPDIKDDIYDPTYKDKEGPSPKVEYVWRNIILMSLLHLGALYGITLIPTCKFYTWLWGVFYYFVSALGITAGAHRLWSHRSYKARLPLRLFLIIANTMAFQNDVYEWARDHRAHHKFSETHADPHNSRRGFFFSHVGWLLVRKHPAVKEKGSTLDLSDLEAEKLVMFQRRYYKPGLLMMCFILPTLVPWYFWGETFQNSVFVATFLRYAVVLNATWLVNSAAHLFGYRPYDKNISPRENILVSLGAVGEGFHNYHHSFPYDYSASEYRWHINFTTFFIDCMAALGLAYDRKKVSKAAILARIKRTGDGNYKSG
Experimental: as §1

SMILES: CC(C)(C)OC(=O)N1CCC2(CCN(C(=O)c3cc(-c4ccccc4)on3)C2)C1 (stereo not drawn) [US10919885, Compound No. 295]
- IC50 [1]: 29.4 µM
- IC50 [2]: > 45 µM

SMILES: O=C(Nc1cnn(Cc2cccc(Cl)c2)c1)c1cc(-c2ccccn2)on1 [US10919885, Compound No. 57]
- IC50 [1]: > 45 µM
- IC50 [2]: > 45 µM

SMILES: O=C(c1noc2ccccc12)N1CCC[C@H]1c1ccccc1 [US10919885, Compound No. 438]
- IC50 [1]: > 45 µM
- IC50 [2]: > 45 µM

SMILES: O=C(c1cc(-c2ccc3c(c2)OCO3)on1)N1CCC(c2ccc(F)c(F)c2)CC1 [US10919885, Compound No. 292]
- IC50 [1]: 1.82 µM
- IC50 [2]: > 45 µM

SMILES: O=C(Nc1cnn(Cc2ccccc2)c1)c1cc(-c2ccc3c(c2)OCO3)on1 [US10919885, Compound No. 6]
- IC50 [2]: > 45 µM

SMILES: COc1ccc(C2CCCN2C(=O)c2cc(-c3ccccc3OC)on2)cc1 (stereo not drawn) [US10919885, Compound No. 379]
- IC50 [2]: > 45 µM

SMILES: O=C(c1cc(-c2ccc3c(c2)CCO3)on1)N1CCCC1c1ccncn1 (stereo not drawn) [US10919885, Compound No. 440]
- IC50 [1]: > 45 µM
- IC50 [2]: > 45 µM

SMILES: N#Cc1ccc(C2CCN(C(=O)c3cc(-c4ccc5c(c4)OCO5)on3)CC2)cc1 [US10919885, Compound No. 291]
- IC50 [1]: 4.75 µM
- IC50 [2]: > 45 µM

SMILES: CC(C)(C)OC(=O)N1CCC(NC(=O)c2cc(-c3ccco3)on2)CC1 [US10919885, Compound No. 287]
- IC50 [1]: > 45 µM
- IC50 [2]: > 45 µM

SMILES: CC(C)(C)OC(=O)N1CCC(NC(=O)c2cc(-c3ccco3)on2)C1 (stereo not drawn) [US10919885, Compound No. 332]
- IC50 [1]: > 45 µM
- IC50 [2]: > 45 µM
